The source of these data is patent publication US20100222330A1, “New Compounds” (BIOVITRUM AB, priority 2001, published 2010).

Series [1] in a line: Plasma drug concentration at steady state in the food intake study (LC/MS). Format: in vivo. Also on record: unit not given here. The settings on record: ob/ob mouse, trunk blood at end of study. How it is done: (§1) The weight of the food pellets are measured at 5 p.m. and at 8 p.m. for two days before (baseline) and one day after the implantation of the osmotic minipumps. The weigh-in is performed with a computer assisted Mettler Toledo PR 5002 balance. Occasional spillage is corrected for. At the end of the study the animals are killed by neck dislocation and trunk blood sampled for later analysis of plasma drug concentrations.
The plasma sample proteins are precipitated with methanol, centrifuged and the supernatant is transferred to HPLC vials and injected into the liquid chromatography/mass spectrometric system. The mass spectrometer is set for electrospray positive ion mode and Multiple Reaction Monitoring (MRM with the transition m/z 316 ? 221). A linear regression analysis of the standards forced through the origin is used to calculate the concentrations of the unknown samples.

A further series deals with ob/ob mouse. In words: In vivo assay of reduction of food intake (15 h, osmotic minipump infusion). The settings on record: for % Inhibition of Food Intake in ob/ob mice at 50 mg/Kg/day, 15 h: continuous subcutaneous infusion. The method, then: Obese (ob/ob) mouse is selected as the primary animal model for screening as this mutant mouse consumes high amounts of food resulting in a high signal to noise ratio. To further substantiate and compare efficacy data, the effect of the compounds on food consumption is also studied in wild type (C57BL/6J) mice. The amount of food consumed during 15 hours of infusion of compounds is recorded.
Male mice (obese C57BL/6JBom-Lee and lean wild-type C57B1/6JBom; Bomholtsgaard, Denmark) 8-9 weeks with an average body weight of 50 g (obese) and 25 g (lean) are used in all the studies. The animals are housed singly in cages at 23±1° C., 40-60% humidity and have free access to water and standard laboratory chow. The 12/12-h light/dark cycle is set to lights off at 5 p.m. The animals are conditioned for at least one week before start of study.
The test compounds are dissolved in solvents suitable for each specific compound such as cyclodextrin, cyclodextrin/methane sulfonic acid, polyethylene glycol/methane sulfonic acid, saline. Fresh solutions are made for each study. […] The purity of the test compounds is of analytical grade.
The animals are weighed at the start of the study and randomized based on body weight. Alzet osmotic minipumps (Model 2001 D; infusion rate 8 μl/h) are used and loaded essentially as recommended by the Alzet technical information manual (Alza Scientific Products, 1997; Teeuwes and Yam, 1976). Continuous subcutaneous infusion with 24 hours duration is used. The minipumps are either filled with different concentrations of test compounds dissolved in vehicle or with only vehicle solution and maintained in vehicle pre-warmed to 37° C. (approx. 1 h). The minipumps are implanted subcutaneously in the neck/back region under short acting anesthesia (metofane/enflurane). This surgical procedure lasts approximately 5 min. It takes about 3 h to reach steady state delivery of the compound.
as §1
Food consumption for 15 hours is measured for the three consecutive days and the percentage of basal level values is derived for each animal from the day before and after treatment. The values are expressed as mean±SD and ±SEM from eight animals per dose group. Statistical evaluation is performed by Kruskal-Wallis one-way ANOVA using the percent basal values. If statistical significance is reached at the level of p<0.05, Mann-Whitney U-test for statistical comparison between control and treatment groups is performed.

What is called melting point is the temperature, or range, at which the solid turns liquid.

Turning to `Cc1ccc(S(=O)(=O)Nc2ccc(N3CCNCC3)c3ccccc23)cc1.Cl`, the melting point is 181 °C (dec.). Consider `Cl.O=S(=O)(Nc1ccc(N2CCNCC2)c2ccccc12)c1ccc2ccccc2c1` [Example 13, 2-N-[4-(1-piperazinyl)-1-naphthyl]naphthalenesulfonamide, hydrochloride], for which, in series [1], the “Free plasma concentration of the compounds at steady state (Css, u)” value (shortened to “Free plasma concentration”) came to 0.035. In addition, the “% Inhibition of Food Intake in ob/ob mice at 50 mg/Kg/day, 15 h” value (“% Inhibition … at 50 mg/Kg/day, 15 h” below) with ob/ob mouse amounted to 24.1%.

For the compound `Cc1ccc(S(=O)(=O)N(C)c2ccc(N3CCNCC3)c3ccccc23)cc1.Cl` [Example 14, N,4-Dimethyl-N-[4-(1-piperazinyl)-1-naphthyl]benzenesulfonamide, hydrochloride], the “Free plasma concentration” value in series [1] is on record as 0.23. The “% Inhibition of Food Intake in ob/ob mice, 15 h” value in the series on ob/ob mouse (dose of 100 mg/kg/d (footnote b)) is given as 41^b %. Consider `Cl.O=S(=O)(Nc1ccc(N2CCNCC2)c2ccccc12)c1ccc(Br)cc1` [Example 19, 4-Bromo-N-(4-piperazin-1-yl-naphthalen-1-yl)-benzenesulfonamide, hydrochloride], for which the “Free plasma concentration” value in series [1] is 0.150. Besides, in the series with ob/ob mouse, the “% Inhibition … at 50 mg/Kg/day, 15 h” value is reported as 69.6%. On the same counts, the results for `Cl.O=S(=O)(Nc1ccc(N2CCNCC2)c2ccccc12)c1cccc(C(F)(F)F)c1` [Example 24, 3-Trifluoromethyl-N-[4-(1-piperazinyl)-1-naphthyl]benzenesulfonamide, hydrochloride] are 0.0076 and 46.2%. For the compound `Cl.O=S(=O)(Nc1ccc(N2CCNCC2)c2ccccc12)c1cccc2ccccc12` [Example 27, Naphthalene-1-sulfonic acid (4-piperazin-1-yl-naphthalen-1-yl)-amide, hydrochloride], the “Free plasma concentration” value in series [1] is given as 0.008. Besides, the “% Inhibition … at 50 mg/Kg/day, 15 h” value with ob/ob mouse is on record as 68.9%. As to `COc1ccc(S(=O)(=O)Nc2ccc(N3CCNCC3)c3ccccc23)cc1.Cl` [Example 29, 4-Methoxy-N-(4-piperazin-1-yl-naphthalen-1-yl)-benzenesulfonamide, hydrochloride], the “Free plasma concentration” value in series [1] is reported as 0.33. For the same compound, in the series with ob/ob mouse, the “% Inhibition … at 50 mg/Kg/day, 15 h” value is on record as 71%. Take `Cl.O=S(=O)(Nc1ccc(N2CCNCC2)c2ccccc12)c1ccc(Cl)cc1` [Example 30, 4-Chloro-N-(4-piperazin-1-yl-naphthalen-1-yl)-benzenesulfonamide, hydrochloride]: the “Free plasma concentration” value in series [1] worked out at 0.275. Moreover, in the series on ob/ob mouse, the “% Inhibition … at 50 mg/Kg/day, 15 h” value turned out to be 60.1%. In the case of `Cc1ccc(F)cc1S(=O)(=O)Nc1ccc(N2CCNCC2)c2ccccc12.Cl` [Example 34, 5-Fluoro-2-methyl-N-(4-piperazin-1-yl-naphthalen-1-yl)-benzenesulfonamide, hydrochloride], the “Free plasma concentration” value in series [1] turned out to be 0.078. Moreover, in the series on ob/ob mouse, the “% Inhibition … at 50 mg/Kg/day, 15 h” value is 51.4%.

On to `Cc1c(Cl)cccc1S(=O)(=O)Nc1ccc(N2CCNCC2)c2ccccc12.Cl` [Example 48, 3-Chloro-2-methyl-N-(4-piperazin-1-yl-naphthalen-1-yl)-benzenesulfonamide, hydrochloride], for which the “Free plasma concentration” value in series [1] is on record as 0.008. Besides, the “% Inhibition … at 50 mg/Kg/day, 15 h” value in the series on ob/ob mouse is reported as 23.8%. In the case of `Cc1cc(Cl)cc(Cl)c1S(=O)(=O)Nc1ccc(N2CCNCC2)c2ccccc12.Cl` [Example 53, 2,4-Dichloro-6-methyl-N-(4-piperazin-1-yl-naphthalen-1-yl)-benzenesulfonamide, hydrochloride], in the series with ob/ob mouse (dose of 14.8 mg/kg/d (footnote a)), the “% Inhibition of Food Intake in ob/ob mice, 15 h” value is on record as 25.7^a %.
